Assay results from ChEMBL document CHEMBL5352421, “Identification of novel piperazine-tethered phthalazines as selective CDK1 inhibitors endowed with in vitro anticancer activity toward the pancreatic cancer” (Eur J Med Chem, 2022).

How the values were obtained:
[1] = system: KG-1; test: Antiproliferative activity against human KG-1 cells assessed as growth inhibition incubated at 10 uM for 24 hrs by MTT assay relative to control; type: functional; conditions: read-out: GI
[2] = Selectivity index, ratio of IC50 for CDK2 (unknown origin) to CDK1 (unknown origin)
[3] = biological target: Cyclin-dependent kinase 2 (Homo sapiens, UniProt P24941); test: Inhibition of CDK2 (unknown origin) by FRET assay
[4] = system: BT-549; test: Antiproliferative activity against human BT-549 cells assessed as growth inhibition incubated at 10 uM for 24 hrs by MTT assay relative to control; type: functional; conditions: read-out: GI
[5] = biological target: Cyclin-dependent kinase 5 (Homo sapiens, UniProt Q00535); test: Inhibition of CDK5 (unknown origin) by FRET assay
[6] = Selectivity index, ratio of IC50 for CDK5 (unknown origin) to CDK1 (unknown origin)
[7] = biological target: Fibroblast growth factor receptor (Homo sapiens, UniProt P22607+P11362+P22455+P21802); test: Inhibition of FGFR (unknown origin) by FRET assay; type: protein assay
[8] = Antiproliferative activity against human MDA-PATC53 cells assessed as growth inhibition incubated for 24 hrs by MTT assay; type: functional, cell-based; conditions: MDA-PATC53, 24 h
[9] = Antiproliferative activity against human MDA-PATC53 cells assessed as growth inhibition incubated at 10 uM for 24 hrs by MTT assay relative to control; type: functional; conditions: read-out: GI
[10] = biological target: Protein-tyrosine kinase 2-beta (Homo sapiens, UniProt Q14289); test: Inhibition of PTK2B (unknown origin) by FRET assay
[11] = system: MCF7; test: Antiproliferative activity against human MCF7 cells assessed as growth inhibition incubated at 10 uM for 24 hrs by MTT assay relative to control; type: functional; conditions: read-out: GI
[12] = system: HT-29; test: Antiproliferative activity against human HT-29 cells assessed as growth inhibition incubated at 10 uM for 24 hrs by MTT assay relative to control; type: functional; conditions: read-out: GI
[13] = system: G-361; test: Antiproliferative activity against human G-361 cells assessed as growth inhibition incubated at 10 uM for 24 hrs by MTT assay relative to control; type: functional; conditions: read-out: GI
[14] = system: SK-MEL-1; test: Antiproliferative activity against human SK-MEL-1 cells assessed as growth inhibition incubated at 10 uM for 24 hrs by MTT assay relative to control; type: functional; conditions: read-out: GI
[15] = Antiproliferative activity against human PL45 cells assessed as growth inhibition incubated for 24 hrs by MTT assay; type: functional, cell-based; conditions: PL45, 24 h
[16] = system: A-375; test: Antiproliferative activity against human A-375 cells assessed as growth inhibition incubated at 10 uM for 24 hrs by MTT assay relative to control; type: functional; conditions: read-out: GI
[17] = biological target: Cyclin-dependent kinase 1 (Homo sapiens, UniProt P06493); test: Inhibition of CDK1 (unknown origin) by FRET assay
[18] = biological target: Serine/threonine-protein kinase B-raf (Homo sapiens, UniProt P15056); test: Inhibition of BRAF (unknown origin) by FRET assay
[19] = biological target: Insulin-like growth factor 1 receptor (Homo sapiens, UniProt P08069); test: Inhibition of IGF1R (unknown origin) by FRET assay
[20] = system: MOLT-4; test: Antiproliferative activity against human MOLT-4 cells assessed as growth inhibition incubated at 10 uM for 24 hrs by MTT assay relative to control; type: functional; conditions: read-out: GI
[21] = system: T84; test: Antiproliferative activity against human T84 cells assessed as growth inhibition incubated at 10 uM for 24 hrs by MTT assay relative to control; type: functional; conditions: read-out: GI
[22] = biological target: Tyrosine-protein kinase JAK1 (Homo sapiens, UniProt P23458); test: Inhibition of JAK1 (unknown origin) by FRET assay
[23] = Antiproliferative activity against human PL45 cells assessed as growth inhibition incubated at 10 uM for 24 hrs by MTT assay relative to control; type: functional; conditions: read-out: GI
[24] = biological target: T1, Tyrosine-protein kinase receptor UFO (Homo sapiens, UniProt P30530); test: Inhibition of AXL (unknown origin) by FRET assay
T1 sequence (P30530 whole entry): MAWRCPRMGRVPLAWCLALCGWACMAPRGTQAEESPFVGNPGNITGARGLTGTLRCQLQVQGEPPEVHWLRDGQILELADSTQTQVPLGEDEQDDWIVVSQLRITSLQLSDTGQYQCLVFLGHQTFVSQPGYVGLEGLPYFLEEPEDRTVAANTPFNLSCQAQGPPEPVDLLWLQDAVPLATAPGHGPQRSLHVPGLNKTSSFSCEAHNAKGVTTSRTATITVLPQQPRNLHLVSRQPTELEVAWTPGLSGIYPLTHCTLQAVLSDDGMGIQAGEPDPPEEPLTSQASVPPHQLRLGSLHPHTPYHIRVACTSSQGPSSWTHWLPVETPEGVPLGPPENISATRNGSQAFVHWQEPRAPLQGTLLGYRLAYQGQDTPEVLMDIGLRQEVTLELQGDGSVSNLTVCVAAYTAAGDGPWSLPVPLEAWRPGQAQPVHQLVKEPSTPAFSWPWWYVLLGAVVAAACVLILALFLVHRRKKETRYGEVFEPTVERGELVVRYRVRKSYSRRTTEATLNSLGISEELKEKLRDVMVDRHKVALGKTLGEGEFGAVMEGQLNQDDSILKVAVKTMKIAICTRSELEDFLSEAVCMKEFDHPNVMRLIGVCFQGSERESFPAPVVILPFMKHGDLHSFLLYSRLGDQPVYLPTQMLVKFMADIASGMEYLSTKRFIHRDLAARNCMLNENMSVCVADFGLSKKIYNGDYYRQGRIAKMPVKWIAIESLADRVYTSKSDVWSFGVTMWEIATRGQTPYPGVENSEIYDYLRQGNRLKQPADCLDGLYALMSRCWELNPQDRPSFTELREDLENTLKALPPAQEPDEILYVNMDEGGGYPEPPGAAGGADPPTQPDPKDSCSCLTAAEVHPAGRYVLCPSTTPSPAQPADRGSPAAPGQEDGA

Chain of Serine/threonine-protein kinase B-raf (P15056 whole entry): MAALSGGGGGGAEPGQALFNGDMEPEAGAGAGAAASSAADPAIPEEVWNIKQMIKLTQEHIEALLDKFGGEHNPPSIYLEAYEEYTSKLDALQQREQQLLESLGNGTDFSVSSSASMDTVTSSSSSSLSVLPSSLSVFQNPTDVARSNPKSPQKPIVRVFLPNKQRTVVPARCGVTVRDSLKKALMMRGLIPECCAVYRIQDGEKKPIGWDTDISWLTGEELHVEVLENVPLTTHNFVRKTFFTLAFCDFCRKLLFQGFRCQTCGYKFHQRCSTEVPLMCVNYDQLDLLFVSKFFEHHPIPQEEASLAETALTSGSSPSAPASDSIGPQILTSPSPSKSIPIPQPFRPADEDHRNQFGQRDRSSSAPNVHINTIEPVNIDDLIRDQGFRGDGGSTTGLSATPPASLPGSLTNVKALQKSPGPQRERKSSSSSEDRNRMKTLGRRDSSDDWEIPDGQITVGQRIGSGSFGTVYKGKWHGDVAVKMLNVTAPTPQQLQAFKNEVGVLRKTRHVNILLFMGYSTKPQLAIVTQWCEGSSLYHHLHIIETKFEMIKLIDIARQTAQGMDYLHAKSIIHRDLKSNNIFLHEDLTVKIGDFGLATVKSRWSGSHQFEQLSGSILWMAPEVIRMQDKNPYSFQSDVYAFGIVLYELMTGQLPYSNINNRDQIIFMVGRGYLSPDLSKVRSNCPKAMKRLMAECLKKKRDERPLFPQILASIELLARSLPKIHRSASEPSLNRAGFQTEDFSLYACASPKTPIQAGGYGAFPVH
Chain of Protein-tyrosine kinase 2-beta (Q14289 whole entry): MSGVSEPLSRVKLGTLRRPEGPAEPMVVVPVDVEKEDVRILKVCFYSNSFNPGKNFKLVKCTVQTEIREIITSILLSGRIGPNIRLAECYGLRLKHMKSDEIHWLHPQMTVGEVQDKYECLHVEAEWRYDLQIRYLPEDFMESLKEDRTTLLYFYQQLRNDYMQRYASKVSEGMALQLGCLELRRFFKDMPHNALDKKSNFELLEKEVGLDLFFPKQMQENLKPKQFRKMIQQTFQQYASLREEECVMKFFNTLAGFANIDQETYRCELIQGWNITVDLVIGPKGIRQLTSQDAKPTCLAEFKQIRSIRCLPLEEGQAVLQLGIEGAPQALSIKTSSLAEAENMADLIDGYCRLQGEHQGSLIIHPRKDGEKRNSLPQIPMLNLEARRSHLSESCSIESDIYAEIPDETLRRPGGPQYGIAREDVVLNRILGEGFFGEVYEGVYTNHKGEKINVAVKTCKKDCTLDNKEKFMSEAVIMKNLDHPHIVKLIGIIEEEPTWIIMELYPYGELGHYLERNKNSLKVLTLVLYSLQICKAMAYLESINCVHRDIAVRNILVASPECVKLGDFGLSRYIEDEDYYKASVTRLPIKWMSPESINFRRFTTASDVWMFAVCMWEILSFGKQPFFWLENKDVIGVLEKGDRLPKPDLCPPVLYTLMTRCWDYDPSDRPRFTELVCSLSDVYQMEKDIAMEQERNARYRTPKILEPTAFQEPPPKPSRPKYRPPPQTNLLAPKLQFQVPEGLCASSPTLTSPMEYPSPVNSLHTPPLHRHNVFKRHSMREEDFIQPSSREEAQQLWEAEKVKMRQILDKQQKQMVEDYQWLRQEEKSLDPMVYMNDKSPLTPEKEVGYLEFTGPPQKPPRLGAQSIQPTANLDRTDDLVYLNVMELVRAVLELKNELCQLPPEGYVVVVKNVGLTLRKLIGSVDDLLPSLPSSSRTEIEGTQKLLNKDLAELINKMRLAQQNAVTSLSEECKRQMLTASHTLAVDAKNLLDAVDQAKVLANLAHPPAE
Chain of Tyrosine-protein kinase JAK1 (P23458 whole entry): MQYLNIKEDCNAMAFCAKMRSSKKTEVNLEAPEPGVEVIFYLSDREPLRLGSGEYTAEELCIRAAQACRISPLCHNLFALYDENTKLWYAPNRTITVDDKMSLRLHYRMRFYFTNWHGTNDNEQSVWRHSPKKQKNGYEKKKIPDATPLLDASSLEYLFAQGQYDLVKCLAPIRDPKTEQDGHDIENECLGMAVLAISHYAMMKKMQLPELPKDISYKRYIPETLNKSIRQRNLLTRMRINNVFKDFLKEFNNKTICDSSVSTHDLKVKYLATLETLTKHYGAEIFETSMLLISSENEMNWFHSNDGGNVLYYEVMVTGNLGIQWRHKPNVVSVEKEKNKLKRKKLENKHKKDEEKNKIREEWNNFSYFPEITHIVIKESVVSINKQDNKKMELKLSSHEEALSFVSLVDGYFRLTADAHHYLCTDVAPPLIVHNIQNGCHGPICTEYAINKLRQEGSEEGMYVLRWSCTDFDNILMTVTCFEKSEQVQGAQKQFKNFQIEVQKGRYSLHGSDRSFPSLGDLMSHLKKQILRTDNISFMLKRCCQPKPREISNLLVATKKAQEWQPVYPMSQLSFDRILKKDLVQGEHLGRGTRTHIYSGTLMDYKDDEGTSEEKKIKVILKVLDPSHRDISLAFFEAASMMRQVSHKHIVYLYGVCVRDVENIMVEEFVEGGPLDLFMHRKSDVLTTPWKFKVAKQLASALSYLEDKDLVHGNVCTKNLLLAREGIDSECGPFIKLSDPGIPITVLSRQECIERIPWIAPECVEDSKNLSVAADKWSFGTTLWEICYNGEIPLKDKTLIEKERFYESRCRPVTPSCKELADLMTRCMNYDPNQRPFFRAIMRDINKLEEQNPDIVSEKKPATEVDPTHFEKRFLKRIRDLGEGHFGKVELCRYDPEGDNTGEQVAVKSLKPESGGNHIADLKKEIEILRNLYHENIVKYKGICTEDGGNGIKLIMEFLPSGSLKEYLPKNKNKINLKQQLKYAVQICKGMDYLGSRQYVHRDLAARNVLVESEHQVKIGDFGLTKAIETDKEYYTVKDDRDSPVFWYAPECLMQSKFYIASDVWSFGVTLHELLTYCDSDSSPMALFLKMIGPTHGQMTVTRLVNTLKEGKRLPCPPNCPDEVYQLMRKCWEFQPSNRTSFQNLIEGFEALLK
Chain of Insulin-like growth factor 1 receptor (P08069 31-736 limits assumed): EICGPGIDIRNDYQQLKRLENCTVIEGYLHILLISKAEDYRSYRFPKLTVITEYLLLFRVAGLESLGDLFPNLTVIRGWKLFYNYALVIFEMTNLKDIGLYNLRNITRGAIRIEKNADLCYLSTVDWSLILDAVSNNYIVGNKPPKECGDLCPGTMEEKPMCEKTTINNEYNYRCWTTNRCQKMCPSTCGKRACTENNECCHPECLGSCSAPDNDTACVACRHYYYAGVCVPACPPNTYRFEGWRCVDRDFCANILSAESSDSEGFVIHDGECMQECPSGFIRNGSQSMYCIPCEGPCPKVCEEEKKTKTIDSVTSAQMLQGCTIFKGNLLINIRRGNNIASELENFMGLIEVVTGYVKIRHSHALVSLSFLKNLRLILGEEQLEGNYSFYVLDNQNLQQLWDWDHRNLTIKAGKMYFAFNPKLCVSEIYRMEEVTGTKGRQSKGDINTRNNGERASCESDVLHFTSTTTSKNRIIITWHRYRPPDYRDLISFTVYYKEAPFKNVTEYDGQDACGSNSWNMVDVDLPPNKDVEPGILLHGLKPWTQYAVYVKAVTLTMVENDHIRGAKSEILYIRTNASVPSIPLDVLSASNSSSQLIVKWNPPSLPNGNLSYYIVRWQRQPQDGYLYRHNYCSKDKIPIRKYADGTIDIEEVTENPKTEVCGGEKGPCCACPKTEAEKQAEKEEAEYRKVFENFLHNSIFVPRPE
Chain of Insulin-like growth factor 1 receptor (P08069 741-1367 limits assumed): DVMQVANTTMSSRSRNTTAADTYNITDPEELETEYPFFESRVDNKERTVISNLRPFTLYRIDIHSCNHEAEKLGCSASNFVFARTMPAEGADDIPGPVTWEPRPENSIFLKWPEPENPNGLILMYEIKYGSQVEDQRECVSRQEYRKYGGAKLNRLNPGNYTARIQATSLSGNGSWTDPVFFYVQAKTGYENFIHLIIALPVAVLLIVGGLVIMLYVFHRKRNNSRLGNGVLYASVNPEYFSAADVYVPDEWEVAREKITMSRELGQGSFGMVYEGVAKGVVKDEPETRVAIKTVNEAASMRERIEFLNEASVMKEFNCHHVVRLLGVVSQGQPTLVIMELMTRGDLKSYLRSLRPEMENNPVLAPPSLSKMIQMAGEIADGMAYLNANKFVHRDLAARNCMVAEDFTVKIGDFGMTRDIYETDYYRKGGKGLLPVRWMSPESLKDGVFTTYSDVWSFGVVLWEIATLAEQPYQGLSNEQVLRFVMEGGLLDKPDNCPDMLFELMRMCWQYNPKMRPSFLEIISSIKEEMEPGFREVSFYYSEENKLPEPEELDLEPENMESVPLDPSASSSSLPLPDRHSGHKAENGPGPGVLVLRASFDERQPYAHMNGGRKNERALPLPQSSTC
Chain of Cyclin-dependent kinase 1 (P06493 whole entry): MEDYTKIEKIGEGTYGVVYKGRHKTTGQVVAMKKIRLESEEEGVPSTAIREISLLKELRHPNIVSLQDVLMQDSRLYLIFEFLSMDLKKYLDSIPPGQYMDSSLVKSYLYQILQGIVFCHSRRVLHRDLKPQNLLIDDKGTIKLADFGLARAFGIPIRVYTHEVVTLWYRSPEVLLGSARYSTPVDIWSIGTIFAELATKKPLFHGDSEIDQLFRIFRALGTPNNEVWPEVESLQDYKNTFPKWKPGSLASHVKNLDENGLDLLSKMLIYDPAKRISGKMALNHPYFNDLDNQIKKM
Chain of Cyclin-dependent kinase 5 (Q00535 whole entry): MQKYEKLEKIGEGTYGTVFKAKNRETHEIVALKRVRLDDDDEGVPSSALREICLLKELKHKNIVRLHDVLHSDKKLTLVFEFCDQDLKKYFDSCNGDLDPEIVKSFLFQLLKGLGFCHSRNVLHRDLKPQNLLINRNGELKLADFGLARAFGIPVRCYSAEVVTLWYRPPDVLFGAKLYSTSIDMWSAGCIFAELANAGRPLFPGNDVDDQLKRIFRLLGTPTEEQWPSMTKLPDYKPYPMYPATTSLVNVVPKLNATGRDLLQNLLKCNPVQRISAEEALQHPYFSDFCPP

SMILES	Ratio IC50 [2]	IC50 [3] [nM]	IC50 [5] [nM]	Ratio IC50 [6]	IC50 [7] [nM]	IC50 [10] [nM]	IC50 [17] [nM]	IC50 [18] [nM]	IC50 [19] [nM]	inhibition of growth at 10 µM [1] [%]	inhibition of growth at 10 µM [4] [%]	IC50 [8] [nM]	inhibition of growth at 10 µM [9] [%]	inhibition of growth at 10 µM [11] [%]	inhibition of growth at 10 µM [12] [%]	inhibition of growth at 10 µM [13] [%]	inhibition of growth at 10 µM [14] [%]	IC50 [15] [nM]	inhibition of growth at 10 µM [16] [%]	inhibition of growth at 10 µM [20] [%]	further results
COc1ccc(Cc2nnc(N3CCN(C(=S)Nc4ccc(OC)cc4)CC3)c3ccccc23)cc1	4.7	396	452	5.36	3566	3660	84.4	3050	5650	23.9	23.7	6650	66.4	73.1	51.7	58.3	29.4	2100	47.9	31.4	inhibition of growth at 10 µM [21]: 19.3%; IC50 [22]: 1540 nM; inhibition of growth at 10 µM [23]: 83.5%; IC50 [24]: 8410 nM
COc1ccc(Cc2nnc(N3CCN(C(=O)Nc4ccc(OC)cc4)CC3)c3ccccc23)cc1	6.63	345	140	2.7	3512	4820	52	3700	865	0.31	50.3	4120	73.1	24.2	32.1	49	39	5090	25.8	25.4	inhibition of growth at 10 µM [21]: 57.5%; IC50 [22]: 1570 nM; inhibition of growth at 10 µM [23]: 66.1%; IC50 [24]: 4740 nM
CCc1cnn2c(NCc3ccc[n+]([O-])c3)cc(N3CCCC[C@H]3CCO)nc12 [DINACICLIB]	–	–	–	–	–	–	–	–	–	–	–	24	–	–	–	–	–	15	–	–	–
COc1ccc(Cc2nnc(N3CCN(C(=O)Nc4ccccc4)CC3)c3ccccc23)cc1	6.19	515	601	7.22	2628	5820	83.2	4750	5420	49.7	56	11300	46.3	33.4	51.3	29.8	27.1	2980	36.1	27.8	inhibition of growth at 10 µM [21]: 53.6%; IC50 [22]: 2050 nM; inhibition of growth at 10 µM [23]: 73.6%; IC50 [24]: 2370 nM
COc1ccc(Cc2nnc(N3CCN(C(=S)Nc4ccccc4)CC3)c3ccccc23)cc1	6.16	524	996	11.7	7953	1450	85	4730	2430	13.9	13.2	2060	76.2	14	16.9	4.21	11.4	13300	17	28.7	inhibition of growth at 10 µM [21]: 7.38%; IC50 [22]: 3550 nM; inhibition of growth at 10 µM [23]: 42.3%; IC50 [24]: 1170 nM
COc1ccc(Cc2nnc(N3CCN(C(=S)Nc4ccc(Cl)cc4)CC3)c3ccccc23)cc1	10.8	534	716	14.5	4354	2370	49.5	2470	7440	63.9	75.4	1620	85.8	71.9	80.1	72.3	64.7	1890	85.6	78.4	inhibition of growth at 10 µM [21]: 81.4%; IC50 [22]: 4150 nM; inhibition of growth at 10 µM [23]: 86.4%; IC50 [24]: 2170 nM

Now from value to molecule, other results behind:

Ratio IC50 [2]	IC50 [3] [nM]	IC50 [5] [nM]	Ratio IC50 [6]	IC50 [7] [nM]	IC50 [10] [nM]	IC50 [17] [nM]	IC50 [18] [nM]	IC50 [19] [nM]	SMILES	inhibition of growth at 10 µM [1] [%]	inhibition of growth at 10 µM [4] [%]	IC50 [8] [nM]	inhibition of growth at 10 µM [9] [%]	inhibition of growth at 10 µM [11] [%]	inhibition of growth at 10 µM [12] [%]	inhibition of growth at 10 µM [13] [%]	inhibition of growth at 10 µM [14] [%]	IC50 [15] [nM]	inhibition of growth at 10 µM [16] [%]	inhibition of growth at 10 µM [20] [%]	further results
1.21	138	835	7.32	2628	3500	114	1480	8750	O=C(c1ccc(Cl)cc1)N1CCN(c2nnc(Cc3ccccc3)c3ccccc23)CC1	8.36	0.65	13000	45.1	18.6	4.9	24.7	10.4	8450	15.3	12.1	inhibition of growth at 10 µM [21]: 16.7%; IC50 [22]: 3390 nM; inhibition of growth at 10 µM [23]: 57.4%; IC50 [24]: 3510 nM
1.84	115	276	4.41	5254	3570	62.5	7820	3660	O=C(c1ccccc1)N1CCN(c2nnc(Cc3ccccc3)c3ccccc23)CC1	73.6	24.3	3420	75.8	38.4	40.4	47.9	54.9	5030	32.1	51.2	inhibition of growth at 10 µM [21]: 26.3%; IC50 [22]: 7180 nM; inhibition of growth at 10 µM [23]: 68.5%; IC50 [24]: 4880 nM
1.63	108	280	4.22	4567	7250	66.5	2430	4260	COc1ccc(NC(=O)N2CCN(c3nnc(Cc4ccccc4)c4ccccc34)CC2)cc1	71.3	43.9	1700	85.2	34	54.1	25.7	54.3	4600	34.9	52.9	inhibition of growth at 10 µM [21]: 48%; IC50 [22]: 8500 nM; inhibition of growth at 10 µM [23]: 71.5%; IC50 [24]: 2330 nM
